Measured values from publication PMC8921294, “Inhibition of mitochondrial LonP1 protease by allosteric blockade of ATP binding and hydrolysis via CDDO and its derivatives” (The Journal of Biological Chemistry, 2022).
Changes are numbered by the printed parent chain.

Key:
[1] = molecular target: T1, LonP1 F547A/C576V (Homo sapiens, UniProt P36776, C576V/F547A); experiment: Endpoint ATPase assay, LonP1 F547A/C576V; type: biochemical
T1 construct: hexa-histidine (N); made in house; host or cells: Rosetta 2 E. coli
T1 sequence (P36776 68-959 F547A/C576V): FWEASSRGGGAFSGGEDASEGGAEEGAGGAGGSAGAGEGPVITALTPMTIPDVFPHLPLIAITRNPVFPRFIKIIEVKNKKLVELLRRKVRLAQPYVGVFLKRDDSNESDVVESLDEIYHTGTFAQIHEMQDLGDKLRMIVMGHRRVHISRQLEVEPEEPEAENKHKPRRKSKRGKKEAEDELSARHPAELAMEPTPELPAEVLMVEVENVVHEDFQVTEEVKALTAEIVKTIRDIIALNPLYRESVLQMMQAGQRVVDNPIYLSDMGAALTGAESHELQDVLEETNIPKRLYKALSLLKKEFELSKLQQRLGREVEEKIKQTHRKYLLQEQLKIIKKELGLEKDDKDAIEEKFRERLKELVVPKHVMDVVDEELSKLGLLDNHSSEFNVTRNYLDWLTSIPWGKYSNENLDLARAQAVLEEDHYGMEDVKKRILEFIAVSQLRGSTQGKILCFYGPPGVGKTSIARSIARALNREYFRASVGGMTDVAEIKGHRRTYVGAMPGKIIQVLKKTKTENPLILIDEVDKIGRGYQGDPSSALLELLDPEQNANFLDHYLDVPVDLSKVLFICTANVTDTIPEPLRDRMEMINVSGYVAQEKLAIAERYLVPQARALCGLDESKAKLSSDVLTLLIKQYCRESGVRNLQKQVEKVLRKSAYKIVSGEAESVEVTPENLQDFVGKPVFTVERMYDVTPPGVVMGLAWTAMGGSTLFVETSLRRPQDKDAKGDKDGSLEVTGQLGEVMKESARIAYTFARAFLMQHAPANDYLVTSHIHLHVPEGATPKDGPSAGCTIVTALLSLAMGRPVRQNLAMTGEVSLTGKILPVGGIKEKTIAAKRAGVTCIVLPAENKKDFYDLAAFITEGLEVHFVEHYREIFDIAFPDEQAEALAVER
Protocol: (§1) Human mitochondrial LonP1 and mutants lacking the predicted mitochondrial targeting sequence were fused to an N-terminal hexa-histidine affinity tag, expressed in Rosetta 2 E. Coli, and purified using a nickel agarose column as previously described ([72]) and protein concentration and buffer exchange carried out using Amicon Ultra centrifugal filtration. LonP1 mutant constructs were obtained from the PCR-based QuikChange Site-Directed Mutagenesis Kit.
(§2) ADP-Glo (Promega) assays were performed according to the manufacturer's protocols. Purified wild-type or mutant LonP1 (400 nM monomer), the 26S proteasome (3 nM), or no enzyme controls were preincubated in 96-well plates (60 min, 25 °C) with ten different concentrations of CDDO and its derivatives, TP-82, enoxolone (5 μM) or DMSO vehicle control in buffer (40 mM Tris-HCl (pH 7.5), 20 mM MgCl2, 0.1 mg/ml BSA and 5% DMSO). The 26S and 20S proteasome were also assayed at 0, 0.75, 1.5, 3, 6, and 12 nM in the absence of CDDO derivatives. […] Assay reagents were used to quench further ATPase activity and generate luminescence signals proportional to the concentration of ADP formed. Background (no enzyme control) luminescence values were subtracted, and resultant values were reported as a percentage of the no drug control (100%). […]

[2] = molecular target: T2, LonP1 C576V (Homo sapiens, UniProt P36776, C576V); experiment: Endpoint ATPase assay, LonP1 C576V; type: biochemical
T2 construct: hexa-histidine (N); made in house; host or cells: Rosetta 2 E. coli
T2 sequence (P36776 68-959 C576V): T1 sequence (P36776 68-959 F547A/C576V) with A480F
Protocol: as §1, §2

[3] = end-point ATPase assay, read-out: CDDO IC50

Fold increase in inhibition compared with WT [1]: 7.8 | IC50 [1, 3]: 1800 ± 800 nM | Fold increase in inhibition compared with WT [2]: 2.7 | IC50 [2, 3]: 5.2 ± 1.5 µM
Structure (SMILES): CC1(C)CC[C@]2(C(=O)O)CC[C@]3(C)[C@H](C(=O)C=C4[C@@]5(C)C=C(C#N)C(=O)C(C)(C)[C@@H]5CC[C@]43C)[C@@H]2C1 [CDDO, 2-cyano-3,12-dioxooleana-1,9(11)-dien-28-oic acid]
